# Source: patent US5541169A, “Azoxy compound” (Kowa Company, Ltd., priority 1992, dated 1996)
# System: fungi
# Assay: not given
# Conditions: prior-art compounds; cited from earlier work
row,SMILES,antifungal activity (in words)
1,CCCC/C=C/[N+]([O-])=N[C@@H](C)C(C)=O [KA-7367A],excellent antifungal activity

# System: not given
# Assay: not given
# Conditions: prior-art compounds; cited from earlier work
row,SMILES,stability (in words)
1,CCCC/C=C/[N+]([O-])=N[C@@H](C)C(C)=O [KA-7367A],unstable

# System: Trichophyton rubrum
# Assay: Minimum inhibitory concentration, agar plate dilution method (Sabouraud dextrose medium)
# Type: cell-based
# Conditions: T.r.
# Experimental: (§1) The minimum inhibition concentration was assayed by the agar plate dilution method using Sabouraud dextrose medium.
row,MIC [µg/mL],SMILES
1,1.6,"C[C@H](N=[N+]([O-])C=Cc1ccc(OCC#CI)cc1)[C@@H](C)O [5 (2R), 2(R)-3(S)-3-(4-(3-iodo-2-propynyloxy)styryl-ONN-azoxy)-2-butanol]"
2,1.6,"C[C@H](O)[C@H](C)N=[N+]([O-])C=Cc1ccc(OCC#CI)cc1 [5 (2S), 2(S)-3(S)-3-(4-(3-iodo-2-propynyloxy)styryl-ONN-azoxy)-2-butanol]"
3,0.8,"CC(=C[N+]([O-])=NC(C)COCC#CI)c1ccc(Cl)cc1 (centres unmarked) [Example 1, 2-(2-(4-chlorophenyl)-1-propenyl-ONN-azoxy)-1-(3-iodo-2-propynyloxy)propan]"

# System: Microsporum canis
# Assay: as above
# Type: cell-based
# Conditions: M.c.
# Experimental: as §1
row,MIC [µg/mL],SMILES
1,1.6,"C[C@H](N=[N+]([O-])C=Cc1ccc(OCC#CI)cc1)[C@@H](C)O [5 (2R), 2(R)-3(S)-3-(4-(3-iodo-2-propynyloxy)styryl-ONN-azoxy)-2-butanol]"
2,1.6,"C[C@H](O)[C@H](C)N=[N+]([O-])C=Cc1ccc(OCC#CI)cc1 [5 (2S), 2(S)-3(S)-3-(4-(3-iodo-2-propynyloxy)styryl-ONN-azoxy)-2-butanol]"
3,1.6,"CC(=C[N+]([O-])=NC(C)COCC#CI)c1ccc(Cl)cc1 (centres unmarked) [Example 1, 2-(2-(4-chlorophenyl)-1-propenyl-ONN-azoxy)-1-(3-iodo-2-propynyloxy)propan]"

# System: Candida albicans
# Assay: as above
# Type: cell-based
# Conditions: C.a.
# Experimental: as §1
row,MIC [µg/mL],SMILES
1,12.5,"C[C@H](N=[N+]([O-])C=Cc1ccc(OCC#CI)cc1)[C@@H](C)O [5 (2R), 2(R)-3(S)-3-(4-(3-iodo-2-propynyloxy)styryl-ONN-azoxy)-2-butanol]"
2,6.3,"C[C@H](O)[C@H](C)N=[N+]([O-])C=Cc1ccc(OCC#CI)cc1 [5 (2S), 2(S)-3(S)-3-(4-(3-iodo-2-propynyloxy)styryl-ONN-azoxy)-2-butanol]"
3,50,"CC(=C[N+]([O-])=NC(C)COCC#CI)c1ccc(Cl)cc1 (centres unmarked) [Example 1, 2-(2-(4-chlorophenyl)-1-propenyl-ONN-azoxy)-1-(3-iodo-2-propynyloxy)propan]"

# System: Trichophyton mentagrophytes
# Assay: as above
# Type: cell-based
# Conditions: T.m.
# Experimental: as §1
row,MIC [µg/mL],SMILES
1,0.8,"C[C@H](N=[N+]([O-])C=Cc1ccc(OCC#CI)cc1)[C@@H](C)O [5 (2R), 2(R)-3(S)-3-(4-(3-iodo-2-propynyloxy)styryl-ONN-azoxy)-2-butanol]"
2,0.8,"C[C@H](O)[C@H](C)N=[N+]([O-])C=Cc1ccc(OCC#CI)cc1 [5 (2S), 2(S)-3(S)-3-(4-(3-iodo-2-propynyloxy)styryl-ONN-azoxy)-2-butanol]"
3,0.4,"CC(=C[N+]([O-])=NC(C)COCC#CI)c1ccc(Cl)cc1 (centres unmarked) [Example 1, 2-(2-(4-chlorophenyl)-1-propenyl-ONN-azoxy)-1-(3-iodo-2-propynyloxy)propan]"

# System: not listed separately
# Assay: Stability in ethanol (residual ratio by HPLC)
# Type: physicochemical
# Conditions: 50% ethanol, 4° C., 3 months; 50% ethanol solution, 0.01%
# Experimental: The residual ratio was determined under the following conditions by the HPLC method.
# *Measured in a 50% ethanol solution (sample concentration: 0.01%)
# Column: STR ODSM 4.6 × 150 mm
# Injection volume: 40 μl
# Mobile phase: CH3 CN:H2 O (1:1)
# Temperature: room temperature
row,remaining at 2160 h [%],SMILES
1,99.6,"C[C@H](N=[N+]([O-])C=Cc1ccc(OCC#CI)cc1)[C@@H](C)O [5 (2R), 2(R)-3(S)-3-(4-(3-iodo-2-propynyloxy)styryl-ONN-azoxy)-2-butanol]"
2,99.8,"C[C@H](O)[C@H](C)N=[N+]([O-])C=Cc1ccc(OCC#CI)cc1 [5 (2S), 2(S)-3(S)-3-(4-(3-iodo-2-propynyloxy)styryl-ONN-azoxy)-2-butanol]"

# Same assay, conditions: 50% ethanol, 25° C., 3 months; 50% ethanol solution, 0.01%
row,remaining at 2160 h [%],SMILES
1,99.3,"C[C@H](N=[N+]([O-])C=Cc1ccc(OCC#CI)cc1)[C@@H](C)O [5 (2R), 2(R)-3(S)-3-(4-(3-iodo-2-propynyloxy)styryl-ONN-azoxy)-2-butanol]"
2,97.4,"C[C@H](O)[C@H](C)N=[N+]([O-])C=Cc1ccc(OCC#CI)cc1 [5 (2S), 2(S)-3(S)-3-(4-(3-iodo-2-propynyloxy)styryl-ONN-azoxy)-2-butanol]"

# Same assay, conditions: 50% ethanol, 40° C., 3 months; 50% ethanol solution, 0.01%
row,remaining at 2160 h [%],SMILES
1,92.7,"C[C@H](N=[N+]([O-])C=Cc1ccc(OCC#CI)cc1)[C@@H](C)O [5 (2R), 2(R)-3(S)-3-(4-(3-iodo-2-propynyloxy)styryl-ONN-azoxy)-2-butanol]"
2,86.1,"C[C@H](O)[C@H](C)N=[N+]([O-])C=Cc1ccc(OCC#CI)cc1 [5 (2S), 2(S)-3(S)-3-(4-(3-iodo-2-propynyloxy)styryl-ONN-azoxy)-2-butanol]"

# Same assay, conditions: 50% ethanol, pH 4, pH 4, 40° C., 3 months; 50% ethanol solution, 0.01%
row,remaining at 2160 h [%],SMILES
1,101,"C[C@H](N=[N+]([O-])C=Cc1ccc(OCC#CI)cc1)[C@@H](C)O [5 (2R), 2(R)-3(S)-3-(4-(3-iodo-2-propynyloxy)styryl-ONN-azoxy)-2-butanol]"
2,100,"C[C@H](O)[C@H](C)N=[N+]([O-])C=Cc1ccc(OCC#CI)cc1 [5 (2S), 2(S)-3(S)-3-(4-(3-iodo-2-propynyloxy)styryl-ONN-azoxy)-2-butanol]"

# Same assay, conditions: 50% ethanol, pH 6, pH 6, 40° C., 3 months; 50% ethanol solution, 0.01%
row,remaining at 2160 h [%],SMILES
1,101,"C[C@H](N=[N+]([O-])C=Cc1ccc(OCC#CI)cc1)[C@@H](C)O [5 (2R), 2(R)-3(S)-3-(4-(3-iodo-2-propynyloxy)styryl-ONN-azoxy)-2-butanol]"
2,99.1,"C[C@H](O)[C@H](C)N=[N+]([O-])C=Cc1ccc(OCC#CI)cc1 [5 (2S), 2(S)-3(S)-3-(4-(3-iodo-2-propynyloxy)styryl-ONN-azoxy)-2-butanol]"

# Same assay, conditions: 50% ethanol, pH 8, pH 8, 40° C., 3 months; 50% ethanol solution, 0.01%
row,remaining at 2160 h [%],SMILES
1,83.6,"C[C@H](N=[N+]([O-])C=Cc1ccc(OCC#CI)cc1)[C@@H](C)O [5 (2R), 2(R)-3(S)-3-(4-(3-iodo-2-propynyloxy)styryl-ONN-azoxy)-2-butanol]"
2,74.2,"C[C@H](O)[C@H](C)N=[N+]([O-])C=Cc1ccc(OCC#CI)cc1 [5 (2S), 2(S)-3(S)-3-(4-(3-iodo-2-propynyloxy)styryl-ONN-azoxy)-2-butanol]"
